What was measured:
NHKs [1] = experiment: Cell adhesion of NHKs to peptides co-immobilized with laminin 5; format: cell-based, human; conditions: laminin 5 fixed quantity 0.2 mg, 50,000 cells per well, percentage of LN5 alone
Experimental: Peptides 1, 2 and 3 (variable quantities indicated) and laminin 5 (fixed quantity 0.2 mg) were co-immobilized in 96-well plates. 5×104 NHKs were deposited in each well and plates were incubated at 37° C. for 1 hour. After washing, attached cells were fixed and cell adhesion was measured as described in the methodology section. Cell adhesion in the presence of the peptide is given as a percentage of cell adhesion obtained with laminin 5 alone. Cells were observed by phase contrast microscopy then photographed. Bar=50 μm.
(§1) A decreasing range of LN5 (prepared in the laboratory) and COL4 (BD Biosciences, Le Pont de Claix, France) quantities was made up by successive dilution in PBS. These solutions were immediately distributed into a 96-well culture plate (Costar) at a rate of 100 μl per well. The experiment was conducted in exactly the same way as the experiment described in example 2. The results are given in the form of a graph with the absorbance values representing adhesion on the ordinate and the various substrate concentrations on the abscissa. Attached cells were photographed by phase contrast microscopy.
In order to analyse the effect of the peptide on cell adhesion to DEJ proteins, peptide TALRIRATYGEY (SEQ ID NO.1) (peptide 1) was co-immobilized with LN5 (FIG. 14) and COL4 (FIG. 15). The fixed quantity of matrix protein (LN5 and COL4) and the variable quantity of peptide are given on the graph (FIGS. 14 and 15). Peptides 2 and 3 (described in example 1) were used as controls for the experiment. The adhesion tests were carried out with NHK under the same conditions as the experiment given in FIG. 13 (50,000 cells per well). A peptide-free control representing 100% adhesion (LN5 only and COL4 only) was used to allow analysis of the effect of adhesion relating to the presence of the peptide. The results are given as a percentage of this control.

[2] = test system: HBL100 cells (human mammary epithelium); experiment: Cell adhesion test to immobilized peptides, HBL100; format: cell-based; conditions: HBL100, 0 to 10 micrograms immobilized peptide, 8×10^4 cells per well, 1 hour 37° C., absorbance 570 nm
Experimental: Dose-dependent cell adhesion of cell line HBL100 to various peptides 1, 2 and 3. The peptides were immobilized in 96-well plates at the concentrations given on the abscissa. 8×10^4 cells were deposited in each well and plates were incubated at 37° C. for 1 hour. After washing, attached cells were fixed and cell adhesion was measured as described in the methodology section.
(§2) Peptides 1, 2 and 3 were used for the cell adhesion experiments. A range of 7 decreasing concentrations (100 micrograms/ml, 50 micrograms/ml, 25 micrograms/ml, 12.5 micrograms/ml, 6.25 micrograms/ml, 3.125 micrograms/ml and 1.562 micrograms/ml) was made up by successive dilution in PBS (Phosphate Buffer Saline, KH2PO4 1.54 mM; Na2HPO4 1.42 mM; NaCl-131 mM) using a starting solution at a concentration of 1 mg/ml. These solutions were immediately distributed onto a 96-well culture plate (Greinher, Dutscher, Brumath, France) at a rate of 100 μl per well. Plates were then placed at +4° C. for 16 to 18 hours. The solutions were then removed by turning the plates and each well was saturated with a 1% PBS-BSA solution (bovine serum albumin). Three additional wells without the substrate underwent the same treatment and were used as blanks.
(§3) Epithelial cells were detached from the culture dishes using a trypsin/EDAT solution (0.05-0.02%) then suspended in DMEM medium without additives for the cell lines and in KBM-2 without additive for human keratinocytes. The number of seeded cells per well is given in the graphs (50,000 to 100,000 cells per well).
(§4) After cell seeding, the multi-well plates were placed in an incubator at 37° C. under 5% CO2. After incubation for 30 to 60 minutes, cells were observed under a phase contrast microscope in order to verify that the test was conducted correctly. The adhesion medium was then removed and each well was washed in a sterile PBS solution to remove non-adhering cells. The remaining cells, attached to the substrate, were then fixed using a solution of 1% glutaraldehyde in PBS for 15 minutes. The glutaraldehyde solution as removed and the cells were stained with a crystal violet solution diluted to 1% in distilled water for 30 minutes.
(§5) After rinsing in water several times, cells were permeabilized by means of a 0.02% triton solution for 15 minutes in order to solubilize the crystal violet. Absorbances were read at 570 nm using an ELISA plate reader (MR500, Dynatech, Guernsey, Channel Islands). Each experimental point was carried out in triplicate. The blank value represented the mean absorbance of 3 control wells (BSA). This was subtracted from each of the optical density values for the experimental points. We then calculated the mean for the three absorbance values for each of the triplicate samples.
(§6) The results are presented in the form of a graph with the absorbance values on the ordinate and the various substrate concentrations on the abscissa. Attached cells were photographed by phase contrast microscopy.
(§7) The following cells from epithelial cell lines were used initially (commonly used in preliminary studies on cell adhesion): • line HT1080 cells (human fibrosarcoma), American Type Culture Collection CCL-121. • line HB100 cells (human mammary epithelium), American Type Culture Collection HTB-124. • line A431 cells (skin epitheliods), American Type Culture Collection CRL-1555.

[3] = test system: A431 cells (skin epitheloids); experiment: Cell adhesion test to immobilized peptides, A431; format: cell-based; conditions: A431, 0 to 10 micrograms immobilized peptide, 8×10^4 cells per well, 1 hour 37° C., absorbance 570 nm
Experimental: Dose-dependent cell adhesion of cell line A431 to various peptides 1, 2 and 3. The peptides were immobilized in 96-well plates at the concentrations given on the abscissa. 8×10^4 cells were deposited in each well and plates were incubated at 37° C. for 1 hour. After washing, attached cells were fixed and cell adhesion was measured as described in the methodology section.
as §2, §3, §4, §5, §6, §7

[4] = test system: normal human keratinocytes; experiment: Cell adhesion test to immobilized peptides, normal human keratinocytes; format: cell-based; conditions: 0 to 10 micrograms immobilized peptide, 10^5 cells per well, 1 hour 37° C., absorbance 570 nm
Experimental: Dose-dependent cell adhesion of normal human keratinocytes to various peptides 1, 2 and 3. The peptides were immobilized in 96-well plates at the concentrations given on the abscissa. 10^5 cells were deposited in each well and plates were incubated at 37° C. for 1 hour. After washing, attached cells were fixed and cell adhesion was measured as described in the methodology section.
as §2, §3, §4, §5, §6
Freshly isolated normal human keratinocytes were used in a second experiment. As the basal keratinocytes of the epidermis are in direct contact with LN-5 in the skin, it was necessary to test their adhesion capacity to the peptide in question. Human keratinocytes were obtained from a foreskin biopsy (surgery waste, Pavillon T-Bis, Eduard Herriot Hospital). […]

[5] = test system: HT1080 cells (human fibrosarcoma); experiment: Cell adhesion test to immobilized peptides, HT1080; format: cell-based; conditions: HT1080, 0 to 10 micrograms immobilized peptide, 8×10^4 cells per well, 1 hour 37° C., absorbance 570 nm
Experimental: Dose-dependent cell adhesion of cell line HT1080 to various peptides 1, 2 and 3. The peptides were immobilized in 96-well plates at the concentrations given on the abscissa. 8×10^4 cells were deposited in each well and plates were incubated at 37° C. for 1 hour. After washing, attached cells were fixed and cell adhesion was measured as described in the methodology section.
Dose-dependent cell adhesion of HT1080 cells to various peptide TALRIRATYGEY (SEQ ID NO. 1). The peptides were immobilized in 96-well plates in the quantities given on the abscissa. 8×10^4 cells and 15×10^4 cells were deposited in each well and plates were incubated at 37° C. for 1 hour. After washing, attached cells were fixed and cell adhesion was measured as described in the methodology section. Cells were observed by phase contrast microscopy then photographed. Bar =50 μm
as §2, §3, §4
After rinsing in water several times, cells were permeabilized by means of a 0.02% triton solution for 15 minutes in order to solubilize the crystal violet. Absorbances were read at 570 nm using an ELISA plate reader (MR500, Dynatech, Guernsey, Channel Islands). Each experimental point was carried out in triplicate. The blank value represented the mean absorbance of 3 control wells (BSA). […] We then calculated the mean for the three absorbance values for each of the triplicate samples.
The results are presented in the form of a graph with the absorbance values on the ordinate and the various substrate concentrations on the abscissa. […]
A second approach was taken in order to determine the minimum quantity of active peptide and the number of adhering cells was increased in order to obtain a confluent cell network. […]

NHKs [6] = experiment: Cell adhesion of NHKs to laminin 5 and collagen IV substrates; format: cell-based, human; conditions: 0 to 2 micrograms per well, 5×10^4 NHKs per well, 1 hour 37° C.
Experimental: (A) Diagrammatic representation of laminin 5 and collagen IV in the dermo-epidermal junction (DEJ). (B) Dose-dependent cell adhesion of NHKS to laminin 5 and collagen IV. laminin 5 and collagen IV were fixed to 96-well plates in the quantities given on the abscissa. 5×10^4 NHKs were deposited in each well and plates were incubated at 37° C. for 1 hour. After washing, attached cells were fixed and cell adhesion was measured as described in the methodology section.
as §1

Substance	effect on adhesion of NHKs to LN5 (co-immobilized) (NHKs [1])	cell adhesion to immobilized peptide [2]	cell adhesion to immobilized peptide [3]	cell adhesion to immobilized peptide [4]	cell adhesion to immobilized peptide [5]	adhesion of NHKs to substrate protein (NHKs [6])
DVKNLENIRDNL (Human laminin 5) [Peptide 3, control peptide from the terminal carboxy end of the gamma 2 chain of laminin 5, position 1169-1180, reference compound]	do not modify adhesion	did not lead to any adhesion	did not lead to any adhesion	did not lead to any adhesion	did not lead to any adhesion	
GLTKTYTFRLNE (Human laminin 5) [Peptide 2, control peptide from the gamma 2 chain of laminin 5, position 309-321, reference compound]	do not modify adhesion	did not lead to any adhesion	did not lead to any adhesion	did not lead to any adhesion	did not lead to any adhesion	
LN5: laminin 5, dermo-epidermal junction glycoprotein, prepared in the laboratory, used as adhesion substrate						much better substrate

From US7645740B2, “Peptide sequence found in Laminin 5 for treating skin impairments” (Laboratoires d'Anjou Centre National de la Recherche …, priority 2004, dated 2010)
